In ChEMBL document CHEMBL1127955, “Enantioselective synthesis of the optical isomers of broad-spectrum orally active antifungal azoles, Sch 42538 and Sch 45012” (1994):
“And” between values parts separate entries of the source, which are not always exact repeats. Identical values can stand only once.

How the values were obtained:
Assay type in all cases: functional
Mus musculus [1] = experiment: Compound was tested for the oral activity in CF-1 mice infected with C. Albicans at a dose of 50 mg/kg of 4 days post infection; settings: for Survival: 50 mg/kg; for survival at 50 mg/kg: Mus musculus, po, 96 h
Mus musculus [2] = experiment: Compound was tested for the colony forming units of Aspergillus flavus in mice at a dose of 66 mg/kg expressed as geometric mean
Mus musculus [3] = experiment: Compound was tested for the colony forming units of C. Albicans in mice at a dose of 25 mg/kg expressed as geometric mean
Mus musculus [4] = experiment: Compound was tested for the oral activity in CF-1 mice infected with C. Albicans at a dose of 10 mg/kg of 4 days post infection
Mus musculus [5] = experiment: Compound was tested for the oral activity in CF-1 mice infected with C. Albicans at a dose of 25 mg/kg of 4 days post infection; settings: for Survival: 25 mg/kg; for survival at 25 mg/kg: Mus musculus, po, 96 h
Mus musculus [6] = species: Mus musculus; experiment: Compound was tested for the oral activity in CF-1 mice infected with Aspergillus flavus by sabouraud dextrose broth of pH 5.7 duration of 72 h; design: unit not given here
Mus musculus [7] = experiment: Compound was tested for the colony forming units of C. Albicans in mice at a dose of 10 mg/kg expressed as geometric mean
Mus musculus [8] = experiment: Compound was tested for the oral activity in CF-1 mice infected with Aspergillus flavus at a dose of 100 mg/kg of 4 days post infection; settings: for Survival: 100 mg/kg; for survival at 100 mg/kg: Mus musculus, po, 96 h
Mus musculus [9] = experiment: Compound was tested for the colony forming units of Aspergillus flavus in mice at a dose of 100 mg/kg expressed as geometric mean
Mus musculus [10] = species: Mus musculus; experiment: Compound was tested for the oral activity in CF-1 mice infected with C. Albicans in eagles essential medium at pH 7.0 duration of 48 h; design: unit not given here
Mus musculus [11] = experiment: Compound was tested for the oral activity in CF-1 mice infected with Aspergillus flavus at a dose of 66 mg/kg of 4 days post infection; settings: for Survival: 66 mg/kg; for survival at 66 mg/kg: Mus musculus, po, 96 h
Mus musculus [12] = experiment: Compound was tested for the colony forming units of C. Albicans in mice at a dose of 50 mg/kg expressed as geometric mean

For CCC(C)n1ncn(-c2ccc(N3CCN(c4ccc(OC[C@@H]5COC(Cn6cncn6)(c6ccc(F)cc6F)C5)cc4)CC3)cc2)c1=O (single isomer, unassigned), the Survival (Mus musculus [1]) was 100%, the CFU (Mus musculus [2]) was 2.25 and the CFU (Mus musculus [3]; 25 mg/kg) was 5.14. For the same compound, the Survival (Mus musculus [4]; 10 mg/kg) was 40% and 90%, the Survival (Mus musculus [5]) was 100% and the MIC (Mus musculus [6]) was 0.0625. For the same compound, the CFU (Mus musculus [7]; 10 mg/kg) was 7.42 and 5.92, the Survival (Mus musculus [8]) was 100% and the CFU (Mus musculus [9]) was 1.95. For the same compound, the MIC (Mus musculus [10]) was 0.0039, the Survival (Mus musculus [11]) was 50% and the CFU (Mus musculus [12]; 50 mg/kg) was 4.99.
For CC[C@@H](C)n1ncn(-c2ccc(N3CCN(c4ccc(OC[C@@H]5COC(Cn6cncn6)(c6ccc(F)cc6F)C5)cc4)CC3)cc2)c1=O (single isomer, unassigned), the Survival (Mus musculus [1]) was 0%, the CFU (Mus musculus [3]; 25 mg/kg) was 9 and the Survival (Mus musculus [5]) was 0%. The MIC (Mus musculus [6]) was greater than 8, the Survival (Mus musculus [8]) was 10% and the MIC (Mus musculus [10]) was 0.0313. It also gave a Survival (Mus musculus [11]) of 0% and a CFU (Mus musculus [12]; 50 mg/kg) of 9.
In the case of CCC(C)n1ncn(-c2ccc(N3CCN(c4ccc(OC[C@H]5CO[C@](Cn6cncn6)(c6ccc(F)cc6F)O5)cc4)CC3)cc2)c1=O (single isomer, unassigned) [SAPERCONAZOLE], the Survival (Mus musculus [1]) is reported as 20% and 0%, the MIC (Mus musculus [6]) is reported as 0.0313 and the survival at 100 mg/kg (Mus musculus [8]) is reported as 0%. For the same compound, the MIC (Mus musculus [10]) was 0.0039 and the CFU (Mus musculus [12]; 50 mg/kg) was 8.2 and 9.
Compound CC[C@H](C)n1ncn(-c2ccc(N3CCN(c4ccc(OC[C@@H]5COC(Cn6cncn6)(c6ccc(F)cc6F)C5)cc4)CC3)cc2)c1=O (single isomer, unassigned) [SCH-49999] has a survival at 50 mg/kg (Mus musculus [1]) of 20%, a CFU (Mus musculus [3]) of 9 and a survival at 25 mg/kg (Mus musculus [5]) of 0%. The MIC (Mus musculus [6]) was greater than 8, the survival at 100 mg/kg (Mus musculus [8]) was 20% and the MIC (Mus musculus [10]) was 0.0625. It also gave a survival at 66 mg/kg (Mus musculus [11]) of 0% and a CFU (Mus musculus [12]) of 7.84.
CCC(C)n1ncn(-c2ccc(N3CCN(c4ccc(OC[C@@H]5CO[C@@](Cn6cncn6)(c6ccc(Cl)cc6Cl)O5)cc4)CC3)cc2)c1=O (stereo partly drawn) [ITRACONAZOLE] was tested, and the survival at 50 mg/kg (Mus musculus [1]) was 60%, the CFU (Mus musculus [3]) was 9 and the survival at 10 mg/kg (Mus musculus [4]; Mus musculus, po, 96 h) was 10%. It also gave a survival at 25 mg/kg (Mus musculus [5]) of 0%, an MIC (Mus musculus [6]) of 0.125 and a CFU (Mus musculus [7]) of 8.87. For the same compound, the survival at 100 mg/kg (Mus musculus [8]) was 20%, the MIC (Mus musculus [10]) was 0.0078 and the survival at 66 mg/kg (Mus musculus [11]) was 0%. The CFU (Mus musculus [12]) was 6.68.
